In US12723063B2, “GIPR-agonist compounds” (Eli Lilly and Company, priority 2019, dated 2026):
*1 amine or outer side, *2 acyl side, *3 side chain or, on linkers, in order; H or OH if unused. Where a SMILES comes first, the peptide text is derived from it. Side-chain parts run from the residue outwards. [ ]: non-standard residue; d: D form. The star is where a group is joined. C20 diacid = O=C(O)CCCCCCCCCCCCCCCCCCC(=O)*; C18 diacid = O=C(O)CCCCCCCCCCCCCCCCC(=O)*; γGlu = O=C(O)[C@H](CCC(=O)[*:2])N[*:1]; 4Pal = N[C@@H](Cc1ccncc1)C(=O)O; αMeL = CC(C)C[C@](C)(N)C(=O)O; Orn = NCCC[C@H](N)C(=O)O; AEEA = NCCOCCOCC(=O)O; Aib = CC(C)(N)C(=O)O

Legend:
human GLP-1R = target: T1, human GLP-1R (Homo sapiens, UniProt P43220); assay: [125I]-GLP-1 binding, SPA with WGA beads, 0.1% bacitracin; details: geometric mean, read-out: hGLP1R Ki
T1 construct: expressed in transfected cells; crude membranes
Summary of the method: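 Binding buffer was 25 mM HEPES pH 7.4 with 2.5 mM CaCl2, 1 mM MgCl2, 0.1% (w/v) bacitracin, 0.003% Tween-20 and EDTA-free protease inhibitors. Four-parameter regression gave IC50, converted to Ki (geometric mean, SEM, n independent days).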

human GIPR = target: T2, human GIPR (Homo sapiens, UniProt P48546); assay: [125I]-GIP binding, SPA with WGA beads, 0.1% bacitracin; details: geometric mean, read-out: hGIPR Ki
T2 construct: expressed in transfected cells; crude membranes
T2 sequence (P48546 22-466): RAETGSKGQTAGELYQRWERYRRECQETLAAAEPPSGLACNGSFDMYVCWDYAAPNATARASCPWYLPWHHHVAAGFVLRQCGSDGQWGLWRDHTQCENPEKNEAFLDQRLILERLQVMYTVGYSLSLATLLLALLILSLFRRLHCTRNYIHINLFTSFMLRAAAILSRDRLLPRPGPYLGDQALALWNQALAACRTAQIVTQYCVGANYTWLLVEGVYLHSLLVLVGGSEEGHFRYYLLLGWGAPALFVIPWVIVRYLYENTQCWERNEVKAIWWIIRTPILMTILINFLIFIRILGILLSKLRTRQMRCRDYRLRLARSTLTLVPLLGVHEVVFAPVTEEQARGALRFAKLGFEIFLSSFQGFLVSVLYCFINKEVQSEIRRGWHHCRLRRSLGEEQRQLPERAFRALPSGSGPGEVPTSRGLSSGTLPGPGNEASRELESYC
Summary of the method: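 Ki values are geometric means (SEM, n independent days), derived from four-parameter nonlinear regression of IC50. Membranes came from hGIPR-expressing CHO cells.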

T1 sequence (P43220 24-463): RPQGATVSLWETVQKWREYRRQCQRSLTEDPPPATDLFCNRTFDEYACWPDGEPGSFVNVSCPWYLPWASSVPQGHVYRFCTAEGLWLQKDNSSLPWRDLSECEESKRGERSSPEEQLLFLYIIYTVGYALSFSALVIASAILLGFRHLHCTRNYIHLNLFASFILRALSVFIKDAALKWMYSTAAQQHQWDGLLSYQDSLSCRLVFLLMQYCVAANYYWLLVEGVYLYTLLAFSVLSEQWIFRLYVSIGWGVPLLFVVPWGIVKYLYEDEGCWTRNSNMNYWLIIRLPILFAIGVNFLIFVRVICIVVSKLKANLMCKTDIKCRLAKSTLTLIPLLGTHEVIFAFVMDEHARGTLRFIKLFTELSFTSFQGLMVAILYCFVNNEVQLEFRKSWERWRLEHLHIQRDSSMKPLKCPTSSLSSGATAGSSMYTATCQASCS

Row | Structure (SMILES) | Ki (human GLP-1R) | Ki (human GIPR)
1 | CC[C@H](C)[C@H](NC(=O)[C@H](CCCN)NC(=O)[C@H](CC(=O)O)NC(=O)[C@H](CC(C)C)NC(=O)[C@](C)(CC(C)C)NC(=O)[C@@H](NC(=O)[C@H](CO)NC(=O)[C@H](Cc1ccc(O)cc1)NC(=O)[C@H](CC(=O)O)NC(=O)[C@H](CO)NC(=O)[C@@H](NC(=O)[C@H](Cc1ccccc1)NC(=O)[C@@H](NC(=O)CNC(=O)[C@H](CCC(=O)O)NC(=O)C(C)(C)NC(=O)[C@@H](N)Cc1ccc(O)cc1)[C@@H](C)O)[C@@H](C)CC)[C@@H](C)CC)C(=O)N[C@@H](Cc1c[nH]cn1)C(=O)N[C@@H](CCC(N)=O)C(=O)NC(C)(C)C(=O)N[C@@H](CCC(=O)O)C(=O)N[C@@H](Cc1ccccc1)C(=O)N[C@H](C(=O)N[C@@H](CCC(=O)O)C(=O)N[C@@H](Cc1ccc(O)cc1)C(=O)N[C@@H](CCCCNC(=O)COCCOCCNC(=O)COCCOCCNC(=O)CC[C@H](NC(=O)CCCCCCCCCCCCCCCCCCC(=O)O)C(=O)O)C(=O)N[C@@H](CC(C)C)C(=O)N[C@@H](CCC(=O)O)C(=O)N[C@H](C(=O)NCC(=O)N1CCC[C@H]1C(=O)N[C@@H](CO)C(=O)N[C@@H](CO)C(=O)NCC(=O)N[C@@H](C)C(=O)N1CCC[C@H]1C(=O)N1CCC[C@H]1C(=O)N1CCC[C@H]1C(=O)N[C@@H](CO)C(N)=O)[C@@H](C)O)C(C)C [Example 105] (H-Y[Aib]EGTFISDYSI[αMeL]LD[Orn]IHQ[Aib]EFVEYK([AEEA-AEEA-γGlu-C20 diacid])LETGPSSGAPPPS-NH2) | > 910 nM | 0.174 nM
2 | CC[C@H](C)[C@H](NC(=O)[C@H](CCCN)NC(=O)[C@H](CC(=O)O)NC(=O)[C@H](CC(C)C)NC(=O)[C@](C)(CC(C)C)NC(=O)[C@@H](NC(=O)[C@H](CO)NC(=O)[C@H](Cc1ccc(O)cc1)NC(=O)[C@H](CC(=O)O)NC(=O)[C@H](CO)NC(=O)[C@@H](NC(=O)[C@H](Cc1ccccc1)NC(=O)[C@@H](NC(=O)CNC(=O)[C@H](CCC(=O)O)NC(=O)C(C)(C)NC(=O)[C@@H](N)Cc1ccc(O)cc1)[C@@H](C)O)[C@@H](C)CC)[C@@H](C)CC)C(=O)N[C@@H](Cc1c[nH]cn1)C(=O)N[C@@H](CCC(N)=O)C(=O)NC(C)(C)C(=O)N[C@@H](CCC(=O)O)C(=O)N[C@@H](Cc1ccccc1)C(=O)N[C@H](C(=O)N[C@@H](CCC(=O)O)C(=O)N[C@@H](Cc1ccc(O)cc1)C(=O)N[C@@H](CCCCNC(=O)COCCOCCNC(=O)COCCOCCNC(=O)CC[C@H](NC(=O)CCCCCCCCCCCCCCCCCCC(=O)O)C(=O)O)C(=O)N[C@@H](CC(C)C)C(=O)N[C@@H](CCC(=O)O)C(=O)N[C@@H](CCC(N)=O)C(=O)NCC(=O)N1CCC[C@H]1C(=O)N[C@@H](CO)C(=O)N[C@@H](CO)C(=O)NCC(=O)N[C@@H](C)C(=O)N1CCC[C@H]1C(=O)N1CCC[C@H]1C(=O)N1CCC[C@H]1C(=O)N[C@@H](CO)C(N)=O)C(C)C [Example 106] (H-Y[Aib]EGTFISDYSI[αMeL]LD[Orn]IHQ[Aib]EFVEYK([AEEA-AEEA-γGlu-C20 diacid])LEQGPSSGAPPPS-NH2) | > 910 nM | 0.0918 nM
3 | CC[C@H](C)[C@H](NC(=O)[C@H](CCCN)NC(=O)[C@H](CC(=O)O)NC(=O)[C@H](CC(C)C)NC(=O)[C@](C)(CC(C)C)NC(=O)[C@@H](NC(=O)[C@H](CO)NC(=O)[C@H](Cc1ccc(O)cc1)NC(=O)[C@H](CC(=O)O)NC(=O)[C@H](CO)NC(=O)[C@@H](NC(=O)[C@H](Cc1ccccc1)NC(=O)[C@@H](NC(=O)CNC(=O)[C@H](CCC(=O)O)NC(=O)C(C)(C)NC(=O)[C@@H](N)Cc1ccc(O)cc1)[C@@H](C)O)[C@@H](C)CC)[C@@H](C)CC)C(=O)N[C@@H](Cc1c[nH]cn1)C(=O)N[C@@H](CCC(N)=O)C(=O)NC(C)(C)C(=O)N[C@@H](CCC(=O)O)C(=O)N[C@@H](Cc1ccccc1)C(=O)N[C@H](C(=O)N[C@@H](CCC(=O)O)C(=O)N[C@@H](Cc1ccc(O)cc1)C(=O)N[C@@H](CCCCNC(=O)COCCOCCNC(=O)COCCOCCNC(=O)CC[C@H](NC(=O)CCCCCCCCCCCCCCCCCCC(=O)O)C(=O)O)C(=O)N[C@@H](CC(C)C)C(=O)N[C@@H](CCC(=O)O)C(=O)NCC(=O)NCC(=O)N1CCC[C@H]1C(=O)N[C@@H](CO)C(=O)N[C@@H](CO)C(=O)NCC(=O)N[C@@H](C)C(=O)N1CCC[C@H]1C(=O)N1CCC[C@H]1C(=O)N1CCC[C@H]1C(=O)N[C@@H](CO)C(N)=O)C(C)C [Example 107] (H-Y[Aib]EGTFISDYSI[αMeL]LD[Orn]IHQ[Aib]EFVEYK([AEEA-AEEA-γGlu-C20 diacid])LEGGPSSGAPPPS-NH2) | > 911 nM | 0.0722 nM
4 | CC[C@H](C)[C@H](NC(=O)[C@H](CCCN)NC(=O)[C@H](CC(=O)O)NC(=O)[C@H](CC(C)C)NC(=O)[C@](C)(CC(C)C)NC(=O)[C@@H](NC(=O)[C@H](CO)NC(=O)[C@H](Cc1ccc(O)cc1)NC(=O)[C@H](CC(=O)O)NC(=O)[C@H](CO)NC(=O)[C@@H](NC(=O)[C@H](Cc1ccccc1)NC(=O)[C@@H](NC(=O)CNC(=O)[C@H](CCC(=O)O)NC(=O)C(C)(C)NC(=O)[C@@H](N)Cc1ccc(O)cc1)[C@@H](C)O)[C@@H](C)CC)[C@@H](C)CC)C(=O)N[C@@H](Cc1c[nH]cn1)C(=O)N[C@@H](CCC(N)=O)C(=O)NC(C)(C)C(=O)N[C@@H](CC(=O)O)C(=O)N[C@@H](Cc1ccccc1)C(=O)N[C@H](C(=O)N[C@@H](CCC(=O)O)C(=O)N[C@@H](Cc1ccncc1)C(=O)N[C@@H](CCCCNC(=O)COCCOCCNC(=O)COCCOCCNC(=O)CC[C@H](NC(=O)CCCCCCCCCCCCCCCCCCC(=O)O)C(=O)O)C(=O)N[C@@H](CC(C)C)C(=O)N[C@@H](CCC(=O)O)C(=O)NCC(=O)NCC(=O)N1CCC[C@H]1C(=O)N[C@@H](CO)C(=O)N[C@@H](CO)C(=O)NCC(=O)N[C@@H](C)C(=O)N1CCC[C@H]1C(=O)N1CCC[C@H]1C(=O)N1CCC[C@H]1C(=O)N[C@@H](CO)C(N)=O)C(C)C [Example 108] (H-Y[Aib]EGTFISDYSI[αMeL]LD[Orn]IHQ[Aib]DFVE[4Pal]K([AEEA-AEEA-γGlu-C20 diacid])LEGGPSSGAPPPS-NH2) | > 910 nM | 0.134 nM
5 | CC[C@H](C)[C@H](NC(=O)[C@H](CCCCN)NC(=O)[C@H](CC(=O)O)NC(=O)[C@H](CC(C)C)NC(=O)[C@](C)(CC(C)C)NC(=O)[C@@H](NC(=O)[C@H](CO)NC(=O)[C@H](Cc1ccc(O)cc1)NC(=O)[C@H](CC(=O)O)NC(=O)[C@H](CO)NC(=O)[C@@H](NC(=O)[C@H](Cc1ccccc1)NC(=O)[C@@H](NC(=O)CNC(=O)[C@H](CCC(=O)O)NC(=O)C(C)(C)NC(=O)[C@@H](N)Cc1ccc(O)cc1)[C@@H](C)O)[C@@H](C)CC)[C@@H](C)CC)C(=O)N[C@@H](Cc1c[nH]cn1)C(=O)N[C@@H](CCC(N)=O)C(=O)NC(C)(C)C(=O)N[C@@H](CC(=O)O)C(=O)N[C@@H](Cc1ccccc1)C(=O)N[C@H](C(=O)N[C@@H](CCC(=O)O)C(=O)N[C@@H](Cc1ccncc1)C(=O)N[C@@H](CCCCNC(=O)COCCOCCNC(=O)COCCOCCNC(=O)CC[C@H](NC(=O)CCCCCCCCCCCCCCCCCCC(=O)O)C(=O)O)C(=O)N[C@@H](CC(C)C)C(=O)N[C@@H](CCC(=O)O)C(=O)NCC(=O)NCC(=O)N1CCC[C@H]1C(=O)N[C@@H](CO)C(=O)N[C@@H](CO)C(=O)NCC(=O)N[C@@H](C)C(=O)N1CCC[C@H]1C(=O)N1CCC[C@H]1C(=O)N1CCC[C@H]1C(=O)N[C@@H](CO)C(N)=O)C(C)C [Example 109] (H-Y[Aib]EGTFISDYSI[αMeL]LDKIHQ[Aib]DFVE[4Pal]K([AEEA-AEEA-γGlu-C20 diacid])LEGGPSSGAPPPS-NH2) | > 908 nM | 0.117 nM
6 | CC[C@H](C)[C@H](NC(=O)[C@H](CCCCN)NC(=O)[C@H](CC(=O)O)NC(=O)[C@H](CC(C)C)NC(=O)[C@](C)(CC(C)C)NC(=O)[C@@H](NC(=O)[C@H](CO)NC(=O)[C@H](Cc1ccc(O)cc1)NC(=O)[C@H](CC(=O)O)NC(=O)[C@H](CO)NC(=O)[C@@H](NC(=O)[C@H](Cc1ccccc1)NC(=O)[C@@H](NC(=O)CNC(=O)[C@H](CCC(=O)O)NC(=O)C(C)(C)NC(=O)[C@@H](N)Cc1ccc(O)cc1)[C@@H](C)O)[C@@H](C)CC)[C@@H](C)CC)C(=O)N[C@@H](Cc1c[nH]cn1)C(=O)N[C@@H](CCC(N)=O)C(=O)NC(C)(C)C(=O)N[C@@H](CC(=O)O)C(=O)N[C@@H](Cc1ccccc1)C(=O)N[C@H](C(=O)N[C@@H](CCC(=O)O)C(=O)N[C@@H](Cc1ccncc1)C(=O)N[C@@H](CCCCNC(=O)COCCOCCNC(=O)COCCOCCNC(=O)CC[C@H](NC(=O)CCCCCCCCCCCCCCCCC(=O)O)C(=O)O)C(=O)N[C@@H](CC(C)C)C(=O)N[C@@H](CCC(=O)O)C(=O)NCC(=O)NCC(=O)N1CCC[C@H]1C(=O)N[C@@H](CO)C(=O)N[C@@H](CO)C(=O)NCC(=O)N[C@@H](C)C(=O)N1CCC[C@H]1C(=O)N1CCC[C@H]1C(=O)N1CCC[C@H]1C(=O)N[C@@H](CO)C(N)=O)C(C)C [Example 110] (H-Y[Aib]EGTFISDYSI[αMeL]LDKIHQ[Aib]DFVE[4Pal]K([AEEA-AEEA-γGlu-C18 diacid])LEGGPSSGAPPPS-NH2) | > 908 nM | 0.339 nM
